From article PMC2191358 (The Journal of Experimental Medicine, 1994) come the findings set out here.

Residues, ends and D or L forms follow the SMILES beside them.

Data set [1] deals with TAP translocator (H-2d-derived microsomes) (Mus musculus, UniProt P21958+P36371). Briefly: biochemical.
Another data set has as its system mouse microsomes. Nature of the data set: Efflux of labeled peptide from loaded mouse microsomes. The following applies: mouse liver microsomes in the presence of ATP; HPLC; data not shown. It is filed as biochemical. On the technique in general: Microsomes from liver hold many membrane-bound enzymes, among them those of drug oxidation.
Data set [2] has as its system mouse TAP1/TAP2 translocator. Nature of the data set: Accumulation of labeled peptide in mouse liver microsomes. The following applies: microsomes from TAP1 mutant (C57Bl/6 x 129/SV) mice; means of duplicates.

Sequence of TAP translocator (H-2d-derived microsomes) (P21958 whole entry): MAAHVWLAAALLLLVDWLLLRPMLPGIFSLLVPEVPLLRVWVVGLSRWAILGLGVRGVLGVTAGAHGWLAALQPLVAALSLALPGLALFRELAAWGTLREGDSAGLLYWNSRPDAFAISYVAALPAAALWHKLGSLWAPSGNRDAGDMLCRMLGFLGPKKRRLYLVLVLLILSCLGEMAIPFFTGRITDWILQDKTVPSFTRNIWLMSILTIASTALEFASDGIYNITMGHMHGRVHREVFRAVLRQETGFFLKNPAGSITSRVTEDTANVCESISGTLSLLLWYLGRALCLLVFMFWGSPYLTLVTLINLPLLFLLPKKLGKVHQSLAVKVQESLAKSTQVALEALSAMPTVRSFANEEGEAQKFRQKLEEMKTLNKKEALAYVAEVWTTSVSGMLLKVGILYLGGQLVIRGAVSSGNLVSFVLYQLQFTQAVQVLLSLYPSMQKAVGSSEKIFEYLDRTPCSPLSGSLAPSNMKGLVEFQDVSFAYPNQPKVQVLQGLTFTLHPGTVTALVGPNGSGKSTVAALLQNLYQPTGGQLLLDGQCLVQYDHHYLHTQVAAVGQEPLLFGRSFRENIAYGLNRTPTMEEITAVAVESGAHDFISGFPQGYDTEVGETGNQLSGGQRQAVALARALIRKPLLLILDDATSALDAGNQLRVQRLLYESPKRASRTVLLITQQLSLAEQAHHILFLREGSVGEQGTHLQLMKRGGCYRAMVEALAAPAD
Sequence of TAP translocator (H-2d-derived microsomes) (P36371 whole entry): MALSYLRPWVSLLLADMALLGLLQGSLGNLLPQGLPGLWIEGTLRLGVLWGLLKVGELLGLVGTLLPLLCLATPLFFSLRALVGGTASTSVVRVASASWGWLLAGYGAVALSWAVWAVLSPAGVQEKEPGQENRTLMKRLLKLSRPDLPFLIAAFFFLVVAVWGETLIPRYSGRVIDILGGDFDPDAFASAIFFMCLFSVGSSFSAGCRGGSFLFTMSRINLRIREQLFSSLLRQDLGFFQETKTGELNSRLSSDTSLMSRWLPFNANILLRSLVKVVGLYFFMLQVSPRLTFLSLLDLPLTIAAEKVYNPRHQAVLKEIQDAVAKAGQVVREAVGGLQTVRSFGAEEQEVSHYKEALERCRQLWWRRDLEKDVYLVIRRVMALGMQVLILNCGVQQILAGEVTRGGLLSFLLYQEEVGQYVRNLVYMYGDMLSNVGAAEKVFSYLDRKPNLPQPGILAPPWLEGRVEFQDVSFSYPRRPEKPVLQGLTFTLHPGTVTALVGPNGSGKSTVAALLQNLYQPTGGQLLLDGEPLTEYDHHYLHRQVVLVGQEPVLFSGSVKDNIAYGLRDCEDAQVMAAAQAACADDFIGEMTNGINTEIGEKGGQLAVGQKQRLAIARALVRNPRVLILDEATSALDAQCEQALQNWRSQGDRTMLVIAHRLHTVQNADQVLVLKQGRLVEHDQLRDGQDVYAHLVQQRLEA

The compound `CC(C)C[C@H](NC(=O)[C@H](C)NC(=O)[C@H](CCCNC(=N)N)NC(=O)[C@@H](NC(=O)[C@H](CCCNC(=N)N)NC(=O)[C@H](CCC(N)=O)NC(=O)[C@H](Cc1ccc(O)cc1)NC(=O)[C@@H](N)[C@@H](C)O)[C@@H](C)O)C(=O)N[C@H](C(=O)O)C(C)C` (H-TYQRTRALV-OH) registered an IC50 in data set [1] of 3 µM.

For the compound `CC(C)C[C@H](NC(=O)[C@H](C)NC(=O)[C@@H]1CCCN1C(=O)[C@H](Cc1ccc(O)cc1)NC(=O)[C@H](CC(N)=O)NC(=O)CNC(=O)[C@@H]1CCCN1C(=O)[C@H](C)NC(=O)[C@@H](N)Cc1ccccc1)C(N)=O` [FAPGNYPAL], the “Integrity of material accumulated by and released from microsomes” value with mouse microsomes is recorded as “largely intact”. The compound further displayed an IC50 in data set [1] of 3 µM.

As to TYNRTRALI, the “Accumulation of labeled peptide in TAP- microsomes” value in data set [2] is reported as “do not accumulate”.

Broadly, the IC50 is the concentration at which inhibition is half-maximal. Read a low IC50 as greater potency in that assay.
